For orientation: IC50 means the concentration that inhibits the measured activity by half.

The target in one assay is T1, COX-2 (Homo sapiens, UniProt P35354).
T1 sequence (P35354 18-604): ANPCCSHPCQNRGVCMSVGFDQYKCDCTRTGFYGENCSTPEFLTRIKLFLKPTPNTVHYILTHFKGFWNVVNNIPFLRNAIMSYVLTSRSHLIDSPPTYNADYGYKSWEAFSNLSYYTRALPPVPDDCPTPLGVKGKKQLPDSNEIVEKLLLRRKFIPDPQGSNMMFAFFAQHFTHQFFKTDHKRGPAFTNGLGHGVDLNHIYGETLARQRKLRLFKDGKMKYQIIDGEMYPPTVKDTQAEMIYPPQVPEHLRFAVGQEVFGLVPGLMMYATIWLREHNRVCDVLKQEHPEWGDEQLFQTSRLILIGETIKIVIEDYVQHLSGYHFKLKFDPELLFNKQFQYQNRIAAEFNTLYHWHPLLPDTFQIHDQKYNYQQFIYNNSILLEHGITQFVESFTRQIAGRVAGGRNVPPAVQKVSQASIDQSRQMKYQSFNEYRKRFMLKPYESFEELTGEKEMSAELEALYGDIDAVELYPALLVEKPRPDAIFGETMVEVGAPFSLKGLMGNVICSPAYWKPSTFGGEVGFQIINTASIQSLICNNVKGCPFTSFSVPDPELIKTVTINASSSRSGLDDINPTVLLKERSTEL
The experiment in a line: Whole cell assay for COX-2 using CHO[hCOX-2] transfected cell line. It counts as cell-based. Further details: expressed in transfected cells; host or cells: CHO cells stably transfected with pCDNAIII (CHO[hCOX-2]). The following applies: CHO[hCOX-2] cells, PGE2 synthesis, 10 μM AA. An excerpt: Whole cell assays for COX-2 and COX-1 using CHO transfected cell lines
Chinese hamster ovary (CHO) cell lines which have been stably transfected with an eukaryotic expression vector pCDNAIII containing either the human COX-1 or COX-2 cDNA's are used for the assay. These cell lines are referred to as CHO[hCOX-1] and CHO[hCOX-2], respectively. For cyclooxygenase assays, CHO[hCOX-1] cells from suspension cultures and CHO[hCOX-2] cells prepared by trypsinization of adherent cultures are harvested by centrifugation (300×g, 10 min) and washed once in HBSS containing 15 mM HEPES, pH 7.4, and resuspended in HBSS, 15 mM HEPES, pH 7.4, at a cell concentration of 1.5×10^6 cells/ml. Drugs to be tested are dissolved in DMSO to 66.7-fold the highest test drug concentration. Compounds are typically tested at 8 concentrations in duplicate using serial 3-fold serial dilutions in DMSO of the highest drug concentration. Cells (0.3×10^6 cells in 200 μl) are preincubated with 3 μl of the test drug or DMSO vehicle for 15 min at 37° C. Working solutions of peroxide-free AA (5.5 μM and 110 μM AA for the CHO[hCOX-1] and CHO[COX-2] assays, respectively) are prepared by a 10-fold dilution of a concentrated AA solution in ethanol into HBSS containing 15 mM HEPES, pH 7.4. Cells are then challenged in the presence or absence of drug with the AA/HBSS solution to yield a final concentration of 0.5 μM AA in the CHO[hCOX-1] assay and a final concentration of 10 μM AA in the CHO[hCOX-2] assay. The reaction is terminated by the addition of 10 μl 1N HCl followed by neutralization with 20 μl of 0.5N NaOH. The samples are centrifuged at 300×g at 4° C. for 10 min, and an aliquot of the clarified supernatant is appropriately diluted for the determination of PGE2 levels using an enzyme-linked immunoassay for PGE2 (Correlate PGE2 enzyme immunoassay kit, Assay Designs, Inc.). Cyclooxygenase activity in the absence of test compounds is determined as the difference in PGE2 levels of cells challenged with arachidonic acid versus the PGE2 levels in cells mock-challenged with ethanol vehicle. Inhibition of PGE2 synthesis by test compounds is calculated as a percentage of the activity in the presence of drug versus the activity in the positive control samples.
Compounds of the present invention are inhibitors of cyclooxygenase-2 and are thereby useful in the treatment of cyclooxygenase-2 mediated diseases as enumerated above. The activities of the compounds against cyclooxygenase may be seen in the representative results shown below. In the assay, inhibition is determined by measuring the amount of prostaglandin E2 (PGE2) synthesized in the presence of arachidonic acid, cyclooxygenase-1 or cyclooxygenase-2 and a putative inhibitor. The IC50 values represent the concentration of putative inhibitor required to return PGE2 synthesis to 50% of that obtained as compared to the uninhibited control.

In the next assay the target is COX-1 (Homo sapiens, UniProt P23219). Kind of assay: Human whole blood assay, COX-1 (clotting-induced TxB2 production). More on the design: endogenous in cells; host or cells: platelets in fresh human whole blood without anticoagulant. Format: cell-based. As to conditions: clotting-induced TxB2, 1 hour at 37° C., read-out: COX-1 (IC50 μM) HWB. The protocol: Human whole blood provides a protein and cell-rich milieu appropriate for the study of biochemical efficacy of anti-inflammatory compounds such as selective COX-2 inhibitors. […] This is consistent with the observation that COX-2 inhibitors have no effect on PGE2 production in normal blood. These inhibitors are active only after incubation of human whole blood with LPS, which induces COX-2. This assay can be used to evaluate the inhibitory effect of selective COX-2 inhibitors on PGE2 production. As well, platelets in whole blood contain a large amount of the COX-1 enzyme. Immediately following blood clotting, platelets are activated through a thrombin-mediated mechanism. This reaction results in the production of thromboxane B2 (TxB2) via activation of COX-1. Thus, the effect of test compounds on TxB2 levels following blood clotting can be examined and used as an index for COX-1 activity. Therefore, the degree of selectivity by the test compound can be determined by measuring the levels of PGE2 after LPS induction (COX-2) and TxB2 following blood clotting (COX-1) in the same assay.
Chain of COX-1 (P23219 24-599): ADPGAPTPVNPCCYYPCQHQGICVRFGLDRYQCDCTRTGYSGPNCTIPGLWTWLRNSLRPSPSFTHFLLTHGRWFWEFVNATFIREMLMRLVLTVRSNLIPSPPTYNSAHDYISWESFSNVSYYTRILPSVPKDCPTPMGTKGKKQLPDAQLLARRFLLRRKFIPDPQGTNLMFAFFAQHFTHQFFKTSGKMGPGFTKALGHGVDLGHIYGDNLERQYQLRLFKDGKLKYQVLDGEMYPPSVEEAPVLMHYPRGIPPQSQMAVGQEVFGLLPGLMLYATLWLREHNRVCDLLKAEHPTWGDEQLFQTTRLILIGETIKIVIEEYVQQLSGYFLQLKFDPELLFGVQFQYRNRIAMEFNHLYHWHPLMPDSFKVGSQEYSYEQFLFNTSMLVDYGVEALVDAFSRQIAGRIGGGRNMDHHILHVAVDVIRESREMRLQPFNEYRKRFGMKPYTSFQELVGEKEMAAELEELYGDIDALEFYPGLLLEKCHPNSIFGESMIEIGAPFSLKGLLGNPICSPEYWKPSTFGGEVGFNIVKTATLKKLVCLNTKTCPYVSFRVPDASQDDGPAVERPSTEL
B. COX-1 (Clotting-induced TxB2 production)
Fresh blood is collected into vacutainers containing no anticoagulants. Aliquots of 500 μL are immediately transferred to siliconized microcentrifuge tubes preloaded with 2 μL of either DMSO or a test compound at final concentrations varying from 10 nM to 30 μM. The tubes are vortexed and incubated at 37° C. for 1 hour to allow blood to clot. At the end of incubation, serum is obtained by centrifugation (12,000×g for 5 min.). A 100 μL aliquot of serum is mixed with 400 μL of methanol for protein precipitation. The supernatant is obtained and is assayed for TxB2 using a enzyme immunoassay kit (Cayman, #519031) according to the manufacturer's instruction.

For `CS(=O)(=O)c1ccc(-c2ccoc(=O)c2-c2ccccc2)cc1` [Example 1, 4-(4-Methylsulfonyl)phenyl-3-phenyl-pyran-2-one], the IC50 came to 0.12 µM against COX-2 and 13 µM at COX-1. As for `Cc1cc(-c2ccc(S(C)(=O)=O)cc2)c(-c2ccc(F)cc2)c(=O)o1` [Example 2, 3-(4-Fluorophenyl)-6-methyl-4-(4-methylsulfonyl)phenyl-pyran-2-one], the IC50 at COX-2 amounted to 0.4 µM; on COX-1, 2 µM. Regarding `Cc1cc(-c2ccc(S(C)(=O)=O)cc2)c(-c2cccc(F)c2)c(=O)o1` [Example 3, 3-(3-Fluorophenyl)-6-methyl-4-(4-methylsulfonyl)phenyl-pyran-2-one], the figures for the IC50 at COX-2 and at COX-1 were 0.6 µM and 6.9 µM, respectively. As to `Cc1cc(-c2ccc(S(C)(=O)=O)cc2)c(-c2ccccc2)c(=O)o1` [Example 4, 6-Methyl-4-(4-methylsulfonyl)phenyl-3-phenyl-pyran-2-one], the IC50 is 0.4 µM against COX-2 and 6.3 µM at COX-1.

`CS(=O)(=O)c1ccc(-c2cc(C(F)F)oc(=O)c2-c2ccccc2)cc1` [Example 5, 6-Difluoromethyl-4-(4-methylsulfonyl)phenyl-3-phenyl-pyran-2-one] yielded a half-inhibitory concentration (IC50) against COX-2 of 0.2 µM. Still for that read-out and setting: under `CS(=O)(=O)c1ccc(-c2cc(CF)oc(=O)c2-c2ccccc2)cc1` [Example 6, 6-Fluoromethyl-4-(4-methylsulfonyl)phenyl-3-phenyl-pyran-2-one] stands 1.1 µM. Regarding `Cc1cc(-c2ccc(S(C)(=O)=O)cc2)c(Sc2ccccc2)c(=O)o1` [Example 7, 6-Methyl-4-(4-(methylsulfonyl)phenyl)-3-phenylthio-pyran-2-one], the 50% inhibitory concentration (IC50) against COX-2 was 0.14 µM; on COX-1 it was 16 µM. In the case of `Cc1cc(-c2ccc(S(C)(=O)=O)cc2)c(Oc2ccccc2)c(=O)o1` [Example 8, 6-Methyl-4-(4-(methylsulfonyl)phenyl)-3-phenoxy-pyran-2-one], the IC50 on COX-2 worked out at 0.2 µM; on COX-1 it was 13 µM.

Consider `Cc1cc(-c2ccc(S(C)(=O)=O)cc2)c(-c2cccnc2)c(=O)o1` [Example 9], for which the 50% inhibitory concentration (IC50) amounted to 2.9 µM against COX-2 and 16 µM on COX-1. At COX-2, `Cc1cc(-c2ccc(S(C)(=O)=O)cc2)c(SC(C)C)c(=O)o1` [Example 10, 3-Isopropylthio-6-methyl-4-(4-(methylsulfonyl)phenyl)-pyran-2-one] showed an IC50 of 0.8 µM. On to `CS(=O)(=O)c1ccc(-c2cc(C(F)(F)F)oc(=O)c2Sc2ccccc2)cc1` [Example 11, 4-(4-(Methylsulfonyl)phenyl)-3-phenylthio-6-trifluoromethyl-pyran-2-one], for which the IC50 on COX-2 was 0.01 µM. On to `CC(C)Sc1c(-c2ccc(S(C)(=O)=O)cc2)cc(C(F)(F)F)oc1=O` [Example 12, 3-Isopropylthio-4-(4-(methylsulfonyl)phenyl)-6-trifluoromethyl-pyran-2-one], for which the IC50 against COX-2 is 0.06 µM. Take `Cc1cc(-c2ccc(S(C)(=O)=O)cc2)c(CCC(C)(C)O)c(=O)o1` [Example 14, 3-(3-Hydroxy-3-methylbutyl)-6-methyl-4-(4-methylsulfonyl)phenyl-pyran-2-one]: at COX-2, 2.8 µM corresponded to half-maximal inhibition (IC50).

For the origin of these results see patent US6465509B2, “Pyrones as inhibitors of cyclooxygenase-2” (Merck Frosst Canada & Co., priority 2000, dated 2002).
